Assay results from patent US8685969B2, “Carboline carboxamide compounds useful as kinase inhibitors” (Bristol-Myers Squibb Company, priority 2010, dated 2014).

Assays:
human recombinant Btk = biological target: T1, human recombinant Btk (Homo sapiens, UniProt Q06187); test: Human Recombinant Btk Enzyme Assay; type: biochemical; settings: human recombinant Btk 1 nM, ATP 20 μM, 60 min room temperature; read-out: IC50 for Inhibition of Btk
T1 construct: purchased Invitrogen Corporation
Procedure: Human Recombinant Btk Enzyme Assay
To V-bottom 384-well plates were added test compounds, human recombinant Btk (1 nM, Invitrogen Corporation), fluoresceinated peptide (1.5 μM), ATP (20 μM), and assay buffer (20 mM HEPES pH 7.4, 10 mM MgCl2, 0.015% Brij35 and 4 mM DTT in 1.6% DMSO), with a final volume of 30 μL. After incubating at room temperature for 60 min, the reaction was terminated by adding 45 μl of 35 mM EDTA to each sample. The reaction mixture was analyzed on the Caliper LABCHIP® 3000 (Caliper, Hopkinton, Mass.) by electrophoretic separation of the fluorescent substrate and phosphorylated product. Inhibition data were calculated by comparison to no enzyme control reactions for 100% inhibition and no inhibitor controls for 0% inhibition. Dose response curves were generated to determine the concentration required inhibiting 50% of kinase activity (IC50). Compounds were dissolved at 10 mM in dimethylsulfoxide (DMSO) and evaluated at eleven concentrations.
Using this assay, the IC50 values of the following compounds were determined.

Ramos RA1 B cells = test: Ramos FLIPR Assay (intracellular calcium after anti-human IgM stimulation); type: cell-based; settings: Ramos RA1 B cells stimulated with goat anti-human IgM 2.5 μg/mL; peak calcium; read-out: IC50 for Inhibition of Ramos FLIPR assay
Procedure: Ramos RA1 B cells (ATCC CRL-1596) at a density of 2×10^6 cells/ml in RPMI minus phenol red (Invitrogen 11835-030) and 50 mM HEPES (Invitrogen 15630-130) containing 0.1% BSA (Sigma A8577) were added to one half volume of calcium loading buffer (BD bulk kit for probenecid sensitive assays, #640177) and incubated at room temperature in the dark for 1 hour. Dye-loaded cells were pelleted (Beckmann GS-CKR, 1200 rpm, RT, 5 minutes) and resuspended in RT RPMI minus phenol red with 50 mM HEPES and 10% FBS to a density of 1×10^6 cells/ml. 150 μl aliquots (150,000/well) were plated into 96 well poly-D-lysine coated assay plates (BD 35 4640) and briefly centrifuged (Beckmann GS-CKR 800 rpm, 5 minutes, without brake). 50 μl compound dilutions in 0.4% DMSO/RPMI minus phenol red+50 mM HEPES+10% FBS were added to the wells and the plate was incubated at RT in the dark for 1 hour. Assay plate was briefly centrifuged as above prior to measuring calcium levels.
Using the FLIPR1 (Molecular devices), cells were stimulated by adding goat anti-human IgM (Invitrogen AHI0601) to 2.5 μg/mL. Changes in intracellular calcium concentrations were measured for 180 seconds and percent inhibition was determined relative to peak calcium levels seen in the presence of stimulation only.

T1 sequence (Q06187 whole entry): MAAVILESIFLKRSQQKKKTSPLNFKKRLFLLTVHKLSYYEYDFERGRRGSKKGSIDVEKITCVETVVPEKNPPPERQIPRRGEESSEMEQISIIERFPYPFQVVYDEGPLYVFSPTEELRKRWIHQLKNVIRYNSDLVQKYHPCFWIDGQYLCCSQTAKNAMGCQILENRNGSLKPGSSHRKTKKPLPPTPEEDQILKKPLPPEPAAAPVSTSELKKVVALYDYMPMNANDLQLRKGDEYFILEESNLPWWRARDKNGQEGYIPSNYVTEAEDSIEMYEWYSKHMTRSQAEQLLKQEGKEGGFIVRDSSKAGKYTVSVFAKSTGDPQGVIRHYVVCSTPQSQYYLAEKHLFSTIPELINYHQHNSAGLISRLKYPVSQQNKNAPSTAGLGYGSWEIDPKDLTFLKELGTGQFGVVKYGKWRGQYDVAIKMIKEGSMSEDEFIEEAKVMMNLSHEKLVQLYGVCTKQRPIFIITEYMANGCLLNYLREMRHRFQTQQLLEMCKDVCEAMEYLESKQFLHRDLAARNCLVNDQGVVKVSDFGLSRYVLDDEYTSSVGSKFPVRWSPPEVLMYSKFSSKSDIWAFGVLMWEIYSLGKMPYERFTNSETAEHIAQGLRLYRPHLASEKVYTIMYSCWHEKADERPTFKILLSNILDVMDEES

COCCOc1ccc2c(c1)[nH]c1c(C(N)=O)ncc(-c3cccc(N4Cc5ccc(Cl)cc5C4=O)c3C)c12 [Example 9, 4-(3-(6-Chloro-1-oxoisoindolin-2-yl)-2-methylphenyl)-7-(2-methoxyethoxy)-9H-pyrido[3,4-b]indole-1-carboxamide]
IC50 (human recombinant Btk): 2 nM

Cc1c(-c2cnc(C(N)=O)c3[nH]c4cc(OCCO)ccc4c23)cccc1-n1cnc2ccccc2c1=O [Example 11, 7-(2-Hydroxyethoxy)-4-(2-methyl-3-(4-oxoquinazolin-3(4H)-yl)phenyl)-9H-pyrido[3,4-b]indole-1-carboxamide]
IC50 (human recombinant Btk): 3 nM

Cc1c(-c2cnc(C(N)=O)c3[nH]c4cc(C(C)O)ccc4c23)cccc1-n1cnc2ccccc2c1=O (stereo not drawn) [Example 30, 7-(1-Hydroxyethyl)-4-(2-methyl-3-(4-oxoquinazolin-3(4H)-yl)phenyl)-9H-pyrido[3,4-b]indole-1-carboxamide]
IC50 (Ramos RA1 B cells): 16 nM
IC50 (human recombinant Btk): 3 nM

COc1ccc2c(c1)C(=O)N(c1cccc(-c3cnc(C(N)=O)c4[nH]c5cc(C(C)O)ccc5c34)c1C)C2 (stereo not drawn) [Example 31, 7-(1-Hydroxyethyl)-4-(3-(6-methoxy-1-oxoisoindolin-2-yl)-2-methylphenyl)-9H-pyrido[3,4-b]indole-1-carboxamide]
IC50 (Ramos RA1 B cells): 71 nM

COCCOc1ccc2c(c1)[nH]c1c(C(N)=O)nnc(-c3cccc(N4Cc5ccc(Cl)cc5C4=O)c3C)c12 [Example 32, 1-(3-(6-Chloro-1-oxoisoindolin-2-yl)-2-methylphenyl)-7-(2-methoxyethoxy)-5H-pyridazino[4,5-b]indole-4-carboxamide]
IC50 (human recombinant Btk): 7 nM

Cc1c(-c2nnc(C(N)=O)c3[nH]c4cc(OCCO)ccc4c23)cccc1-n1cnc2ccccc2c1=O [Example 34, 7-(2-Hydroxyethoxy)-1-(2-methyl-3-(4-oxoquinazolin-3(4H)-yl)phenyl)-5H-pyridazino[4,5-b]indole-4-carboxamide]
IC50 (human recombinant Btk): 7 nM

COc1ccc2c(c1)C(=O)N(c1cccc(-c3nnc(C(N)=O)c4[nH]c5cc(C(C)=O)ccc5c34)c1C)C2 [Example 35, 7-Acetyl-1-(3-(6-methoxy-1-oxoisoindolin-2-yl)-2-methylphenyl)-5H-pyridazino[4,5-b]indole-4-carboxamide]
IC50 (Ramos RA1 B cells): 1380 nM
IC50 (human recombinant Btk): 57 nM

COc1ccc2c(c1)C(=O)N(c1cccc(-c3nnc(C(N)=O)c4[nH]c5cc(C(C)(C)O)ccc5c34)c1C)C2 [Example 36, 7-(2-Hydroxypropan-2-yl)-1-(3-(6-methoxy-1-oxoisoindolin-2-yl)-2-methylphenyl)-5H-pyridazino[4,5-b]indole-4-carboxamide]
IC50 (human recombinant Btk): 3 nM

COCCOc1ccc2c(c1)[nH]c1c(C(N)=O)nc(C)c(-c3cccc(-n4cnc5ccccc5c4=O)c3C)c12 [Example 37, 7-(2-Methoxyethoxy)-3-methyl-4-(2-methyl-3-(4-oxoquinazolin-3(4H)-yl)phenyl)-9H-pyrido[3,4-b]indole-1-carboxamide]
IC50 (Ramos RA1 B cells): 190 nM
IC50 (human recombinant Btk): 14 nM

Cc1c(-c2ncc(C(N)=O)c3[nH]c4cc(C(C)(C)O)ccc4c23)cccc1N1Cc2ccc(F)cc2C1=O [Example 41, 1-(3-(6-Fluoro-1-oxoisoindolin-2-yl)-2-methylphentl)-7-(2-hydroxypropan-2-yl)-5H-pyrido[4,3-b]indole-4-carboxamide]
IC50 (Ramos RA1 B cells): > 500 nM
IC50 (human recombinant Btk): 6 nM

Cc1c(-c2ccc(C(N)=O)c3[nH]c4c(c23)CNCC4)cccc1-n1cnc2ccccc2c1=O [Example 42, 9-(2-Methyl-3-(4-oxoquinazolin-3(4H)-yl)phenyl)-2,3,4,5-tetrahydro-1H-pyrido[4,3-b]indole-6-carboxamide]
IC50 (Ramos RA1 B cells): > 1000 nM
IC50 (human recombinant Btk): 521 nM

NC(=O)c1ncc(-c2ccccc2F)c2c1[nH]c1ccc(F)cc12 [Example 54]
IC50 (human recombinant Btk): 65 nM

CN(C)c1ccc(C(=O)Nc2cccc(-c3cnc(C(N)=O)c4[nH]c5cc(C(=O)N6CCOCC6)ccc5c34)c2F)cc1 [Example 55]
IC50 (human recombinant Btk): 43 nM

COc1ccc2[nH]c3c(C(N)=O)ncc(-c4ccccc4F)c3c2c1 [Example 56]
IC50 (human recombinant Btk): 32 nM

Cc1ccc(C(=O)Nc2cccc(-c3cnc(C(N)=O)c4[nH]c5cc(N6CCOCC6)ccc5c34)c2F)nc1 [Example 60]
IC50 (human recombinant Btk): 85 nM

Cc1c(NC(=O)c2ccc(F)cc2)cccc1-c1cnc(C(N)=O)c2[nH]c3cc(N4CCOCC4)ccc3c12 [Example 64]
IC50 (human recombinant Btk): 8 nM

Cc1c(NC(=O)N2Cc3ccc(F)cc3C2)cccc1-c1cnc(C(N)=O)c2[nH]c3cc(N4CCOCC4)ccc3c12 [Example 71]
IC50 (Ramos RA1 B cells): 71 nM
IC50 (human recombinant Btk): 3 nM

NC(=O)c1ncc(-c2cccc(NC(=O)N3Cc4ccc(F)cc4C3)c2F)c2c1[nH]c1cc(N3CCOCC3)ccc12 [Example 73]
IC50 (Ramos RA1 B cells): 1030 nM

NC(=O)c1ncc(-c2cccc(N3Cc4ccc(Cl)cc4C3=O)c2F)c2c1[nH]c1cc(N3CCOCC3)ccc12 [Example 77]
IC50 (Ramos RA1 B cells): 81 nM

Cc1c(-c2cnc(C(N)=O)c3[nH]c4cc5c(cc4c23)OCO5)cccc1N1Cc2ccc(Cl)cc2C1=O [Example 79]
IC50 (Ramos RA1 B cells): 856 nM

COCCOc1ccc2c(c1)[nH]c1c(C(N)=O)ncc(-c3cccc(N4Cc5ccc(OC)cc5C4=O)c3F)c12 [Example 82]
IC50 (Ramos RA1 B cells): 1080 nM

COCCOc1ccc2c(c1)[nH]c1c(C(N)=O)ncc(-c3cccc(N4Cc5ccc(F)cc5C4=O)c3F)c12 [Example 85]
IC50 (Ramos RA1 B cells): 1420 nM

COCCOc1ccc2c(c1)[nH]c1c(C(N)=O)ncc(-c3cccc(-n4cnc5c(F)cccc5c4=O)c3C)c12 [Example 87]
IC50 (Ramos RA1 B cells): 63 nM
IC50 (human recombinant Btk): 7 nM

Cc1c(-c2cnc(C(N)=O)c3[nH]c4cc(OCCO)ccc4c23)cccc1-n1cnc2ccc(F)cc2c1=O [Example 90]
IC50 (Ramos RA1 B cells): 84 nM

Cc1c(-c2cnc(C(N)=O)c3[nH]c4cc(N5CCOCC5)ccc4c23)cccc1N1Cc2ccc(Cl)cc2C1=O [Example 92]
IC50 (Ramos RA1 B cells): 56 nM

Cc1c(-c2cnc(C(N)=O)c3[nH]c4cc(N5CCOCC5)ccc4c23)cccc1-n1cnc2c(F)cccc2c1=O [Example 97]
IC50 (Ramos RA1 B cells): 15 nM

Cc1c(-c2nnc(C(N)=O)c3[nH]c4cc(OCCO)ccc4c23)cccc1N1Cc2ccc(Cl)cc2C1=O [Example 99]
IC50 (human recombinant Btk): 8 nM

Cc1c(-c2nnc(C(N)=O)c3[nH]c4cc(C(C)(C)O)ccc4c23)cccc1N1Cc2ccc(Cl)cc2C1=O [Example 100]
IC50 (Ramos RA1 B cells): 19 nM

Cc1c(-c2ccc(C(N)=O)c3[nH]c4cnc(C(C)(C)O)cc4c23)cccc1-n1cnc2cccc(F)c2c1=O [Example 110]
IC50 (Ramos RA1 B cells): 96 nM
IC50 (human recombinant Btk): 14 nM

Cc1c(-c2ccc(C(N)=O)c3[nH]c4cc(C(=O)N(C)C)ncc4c23)cccc1-n1cnc2ccccc2c1=O [Example 117]
IC50 (Ramos RA1 B cells): 294 nM
IC50 (human recombinant Btk): 23 nM
